For the assay, the target named is T1, Nav1.7 (or SCN9A) channel; HEK cells stably transfected with hSCN9A (Homo sapiens, UniProt Q15858).
T1 construct: expressed in transfected cells
Briefly: Nav1.7 block, PatchXpress 7000 automated whole-cell voltage clamp, estimated IC50 (EIC50). The format is cell-based. The settings on record: PatchXpress platform; hSCN9A HEK cells held at V1/2 of inactivation; estimated IC50.

Each structure is given as a SMILES string.

T1 sequence (Q15858 whole entry): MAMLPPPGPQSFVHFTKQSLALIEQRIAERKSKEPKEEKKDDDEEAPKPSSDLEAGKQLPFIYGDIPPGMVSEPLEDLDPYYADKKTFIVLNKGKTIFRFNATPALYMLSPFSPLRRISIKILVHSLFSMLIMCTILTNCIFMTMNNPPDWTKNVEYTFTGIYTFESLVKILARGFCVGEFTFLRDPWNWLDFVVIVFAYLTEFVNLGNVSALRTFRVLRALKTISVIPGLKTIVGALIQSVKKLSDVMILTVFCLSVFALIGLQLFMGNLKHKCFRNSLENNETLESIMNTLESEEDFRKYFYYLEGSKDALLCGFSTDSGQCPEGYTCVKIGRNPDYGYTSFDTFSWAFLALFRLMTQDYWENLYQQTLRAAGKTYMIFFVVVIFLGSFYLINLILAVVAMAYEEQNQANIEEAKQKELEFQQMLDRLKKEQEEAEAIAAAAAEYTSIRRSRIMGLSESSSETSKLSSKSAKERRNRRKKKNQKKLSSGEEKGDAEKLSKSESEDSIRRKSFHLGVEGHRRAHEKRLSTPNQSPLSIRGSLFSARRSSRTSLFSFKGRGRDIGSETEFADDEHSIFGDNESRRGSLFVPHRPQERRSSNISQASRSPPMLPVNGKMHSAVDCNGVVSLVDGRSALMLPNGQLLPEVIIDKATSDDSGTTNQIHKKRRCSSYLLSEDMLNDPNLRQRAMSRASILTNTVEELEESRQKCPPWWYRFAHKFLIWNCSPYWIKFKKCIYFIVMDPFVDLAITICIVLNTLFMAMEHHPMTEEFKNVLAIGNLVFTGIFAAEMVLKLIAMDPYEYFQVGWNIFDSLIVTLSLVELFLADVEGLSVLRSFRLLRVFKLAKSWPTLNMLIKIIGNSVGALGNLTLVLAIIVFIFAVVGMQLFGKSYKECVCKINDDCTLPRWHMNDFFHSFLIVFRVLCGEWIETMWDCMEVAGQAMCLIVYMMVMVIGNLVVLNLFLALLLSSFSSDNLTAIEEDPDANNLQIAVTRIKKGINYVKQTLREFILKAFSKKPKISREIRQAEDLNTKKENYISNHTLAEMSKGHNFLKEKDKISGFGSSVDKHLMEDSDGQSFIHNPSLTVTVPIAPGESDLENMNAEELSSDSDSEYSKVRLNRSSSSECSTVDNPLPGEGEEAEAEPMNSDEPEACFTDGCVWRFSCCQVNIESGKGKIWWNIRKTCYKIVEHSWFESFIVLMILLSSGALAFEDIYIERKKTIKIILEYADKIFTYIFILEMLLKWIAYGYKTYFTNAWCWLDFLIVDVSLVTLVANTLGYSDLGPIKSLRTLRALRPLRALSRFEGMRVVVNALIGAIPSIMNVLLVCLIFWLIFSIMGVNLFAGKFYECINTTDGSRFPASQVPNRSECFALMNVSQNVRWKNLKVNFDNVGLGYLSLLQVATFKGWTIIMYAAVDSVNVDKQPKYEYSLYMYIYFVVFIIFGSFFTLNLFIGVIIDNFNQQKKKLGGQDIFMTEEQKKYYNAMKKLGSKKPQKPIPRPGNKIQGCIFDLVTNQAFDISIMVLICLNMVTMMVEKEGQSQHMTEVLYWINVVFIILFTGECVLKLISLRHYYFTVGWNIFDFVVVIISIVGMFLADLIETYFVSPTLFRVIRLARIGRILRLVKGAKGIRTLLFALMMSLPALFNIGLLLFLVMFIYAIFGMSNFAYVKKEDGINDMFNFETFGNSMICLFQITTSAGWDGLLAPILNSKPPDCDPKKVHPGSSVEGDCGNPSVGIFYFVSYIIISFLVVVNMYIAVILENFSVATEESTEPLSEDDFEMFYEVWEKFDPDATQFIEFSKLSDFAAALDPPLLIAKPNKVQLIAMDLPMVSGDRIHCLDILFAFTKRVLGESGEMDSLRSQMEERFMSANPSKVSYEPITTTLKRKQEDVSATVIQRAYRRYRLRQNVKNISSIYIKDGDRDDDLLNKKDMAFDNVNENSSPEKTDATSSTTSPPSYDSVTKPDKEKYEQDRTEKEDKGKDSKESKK

For `N#Cc1cc(S(=O)(=O)Nc2nccs2)ccc1Oc1cc(C2CC2)nn1CC(F)(F)F` [Example 194, 3-Cyano-4-[5-cyclopropyl-2-(2,2,2-trifluoro-ethyl)-2H-pyrazol-3-yloxy]-N-thiazol-2-yl-benzenesulfonamide], the half-maximal inhibitory concentration (IC50) (in general, the midpoint of a concentration-inhibition curve) was 36800 nM.

In the case of `N#Cc1cc(S(=O)(=O)Nc2nccs2)ccc1Oc1cc(C2CC2)nn1-c1cc(F)ccc1F` [Example 195, 3-Cyano-4-[5-cyclopropyl-2-(2,5-difluoro-phenyl)-2H-pyrazol-3-yloxy]-N-thiazol-2-yl-benzenesulfonamide], the 50% inhibitory concentration (IC50) is 1080 nM.

Turning to `Cn1ncc(F)c1-c1cc(Cl)ccc1Oc1ccc(S(=O)(=O)Nc2nccs2)cc1C#N` [Example 196, 4-[4-Chloro-2-(4-fluoro-2-methyl-2H-pyrazol-3-yl)-phenoxy]-3-cyano-N-thiazol-2-yl-benzenesulfonamide], the IC50 is 30 nM.

Take `Cc1c(Cl)ccc(Oc2ccc(S(=O)(=O)Nc3nccs3)cc2C#N)c1-c1nnco1` [Example 197, 4-(4-chloro-3-methyl-2-[1,3,4]oxadiazol-2-yl-phenoxy)-3-cyano-N-thiazol-2-yl-benzenesulfonamide]: the IC50 is 1130 nM.

As to `CC(C)(C)n1nccc1-c1c(Cl)cccc1Oc1ccc(S(=O)(=O)Nc2nccs2)cc1C#N` [Example 198, 4-[2-(2-tert-butyl-2H-pyrazol-3-yl)-3-chloro-phenoxy]-3-cyano-N-thiazol-2-yl-benzenesulfonamide], the half-maximal inhibitory concentration (IC50) was 2470 nM.

Consider `N#Cc1cc(S(=O)(=O)Nc2nccs2)ccc1Oc1cccc(Cl)c1-c1ccn[nH]1` [Example 199, 4-[3-chloro-2-(2H-pyrazol-3-yl)-phenoxy]-3-cyano-N-thiazol-2-yl-benzenesulfonamide], for which the IC50 is 110 nM.

For `Cc1n[nH]cc1-c1ccccc1Oc1ccc(S(=O)(=O)Nc2nccs2)cc1C#N` [Example 200, 3-cyano-4-(2-(3-methyl-1H-pyrazol-4-yl)phenoxy)-N-(thiazol-2-yl)benzenesulfonamide], the 50% inhibitory concentration (IC50) was 100 nM.

With `N#Cc1cc(S(=O)(=O)Nc2nccs2)ccc1Oc1ccc(F)cc1-c1ccc(CCO)cc1` [Example 201, 3-cyano-4-{[5-fluoro-4′-(2-hydroxyethyl)biphenyl-2-yl]oxy}-N-1,3-thiazol-2-ylbenzenesulfonamide], the IC50 was 420 nM.

As for `N#Cc1cc(S(=O)(=O)Nc2nccs2)ccc1Oc1ccc(-c2cc(C(F)(F)F)n[nH]2)cc1` [Example 202, 3-cyano-N-thiazol-2-yl-4-[4-(5-trifluoromethyl-2H-pyrazol-3-yl)-phenoxy]-benzenesulfonamide], the IC50 was 600 nM.

Regarding `NC(=O)c1cc(S(=O)(=O)Nc2nccs2)ccc1Oc1ccc(-c2cc(C(F)(F)F)n[nH]2)cc1` [Example 203, 5-(N-thiazol-2-ylsulfamoyl)-2-(4-(3-(trifluoromethyl)-1H-pyrazol-5-yl)phenoxy)benzamide], the half-maximal inhibitory concentration (IC50) was 7480 nM.

`O=S(=O)(Nc1ncns1)c1ccc(Oc2ccn(Cc3ccc(Cl)cc3)n2)c(C(F)(F)F)c1` [Example 204, 4-{[1-(4-chlorobenzyl)-1H-pyrazol-3-yl]oxy}-N-1,2,4-thiadiazol-5-yl-3-(trifluoromethyl)benzenesulfonamide]: the IC50 is 3140 nM.

For the molecule `O=S(=O)(Nc1ncns1)c1ccc(Oc2ccccc2-c2ccccc2)c(C(F)(F)F)c1` [Example 205, 4-(biphenyl-2-yloxy)-N-1,2,4-thiadiazol-5-yl-3-(trifluoromethyl)benzenesulfonamide], the concentration for half-maximal inhibition (IC50) is 330 nM.

`O=S(=O)(Nc1nccs1)c1ccc(Oc2cnn(Cc3ccc(Cl)cc3)c2)cc1F` [Example 206, 4-(1-(4-chlorobenzyl)-1H-pyrazol-4-yloxy)-2-fluoro-N-(thiazol-2-yl)benzenesulfonamide]: the 50% inhibitory concentration (IC50) was 1190 nM.

As for `COc1ccccc1-c1ccccc1Oc1ccc(S(=O)(=O)Nc2nccs2)c(F)c1` [Example 207, 2-fluoro-4-(2′-methoxybiphenyl-2-yloxy)-N-(thiazol-2-yl)benzenesulfonamide], the concentration for half-maximal inhibition (IC50) is 1030 nM.

As to `COc1ccccc1-c1ccccc1Oc1ccc(S(=O)(=O)Nc2nccs2)c(F)c1` [Example 208, 2-fluoro-4-(2′-methoxybiphenyl-2-yloxy)-N-(thiazol-2-yl)benzenesulfonamide], the 50% inhibitory concentration (IC50) was 130 nM.

As for `O=S(=O)(Nc1nccs1)c1ccc(Oc2ccc(-c3ccccc3)cc2)cc1F` [Example 209, 4-(biphenyl-4-yloxy)-2-fluoro-N-(thiazol-2-yl)benzenesulfonamide], the half-maximal inhibitory concentration (IC50) was 590 nM.

With `O=S(=O)(Nc1nccs1)c1ccc(Oc2cccc(-c3ccccc3)c2)cc1F` [Example 210, 4-(biphenyl-3-yloxy)-2-fluoro-N-(thiazol-2-yl)benzenesulfonamide], the concentration for half-maximal inhibition (IC50) is 1370 nM.

`O=S(=O)(Nc1nccs1)c1ccc(Oc2ccc(Cl)cc2-c2ccnn2-c2ccccc2)cc1F` [Example 211, 4-(4-chloro-2-(1-phenyl-1H-pyrazol-5-yl)phenoxy)-2-fluoro-N-(thiazol-2-yl)benzenesulfonamide]: the IC50 was 110 nM.

`CC(C)(C)n1ccc(-c2cc(F)ccc2Oc2ccc(S(=O)(=O)Nc3nccs3)c(F)c2)n1` [Example 212, 4-(2-(1-tert-butyl-1H-pyrazol-3-yl)-4-fluorophenoxy)-2-fluoro-N-(thiazol-2-yl)benzenesulfonamide]: the IC50 is 15400 nM.

Regarding `O=S(=O)(Nc1nccs1)c1ccc(Oc2ccc(F)cc2-c2ccn[nH]2)cc1F` [Example 213, 2-fluoro-4-(4-fluoro-2-(1H-pyrazol-5-yl)phenoxy)-N-(thiazol-2-yl)benzenesulfonamide], the IC50 was 1600 nM.

As to `O=S(=O)(Nc1nccs1)c1ccc(Oc2nc(Cc3ccc(Cl)cc3)cs2)cc1F` [Example 214, 4-[4-(4-chloro-benzyl)-thiazol-2-yloxy]-2-fluoro-N-thiazol-2-yl-benzenesulfonamide], the 50% inhibitory concentration (IC50) is 2410 nM.

With `Cn1ccc(-c2cc(Cl)ccc2Oc2ccc(S(=O)(=O)Nc3nccs3)cc2F)n1` [Example 216, 4-(4-chloro-2-(1-methyl-1H-pyrazol-3-yl)phenoxy)-3-fluoro-N-(thiazol-2-yl)benzenesulfonamide], the IC50 is 910 nM.

Turning to `CC(C)(C)n1nccc1-c1cc(F)ccc1Oc1ccc(S(=O)(=O)Nc2nccs2)cc1F` [Example 217, 4-(2-(1-tert-butyl-1H-pyrazol-5-yl)-4-fluorophenoxy)-3-fluoro-N-(thiazol-2-yl)benzenesulfonamide], the IC50 is 510 nM.

As for `O=S(=O)(Nc1nccs1)c1ccc(Oc2ccc(F)cc2-c2ccn[nH]2)c(F)c1` [Example 218, 3-fluoro-4-(4-fluoro-2-(1H-pyrazol-5-yl)phenoxy)-N-(thiazol-2-yl)benzenesulfonamide], the 50% inhibitory concentration (IC50) was 230 nM.

For the molecule `Cn1nccc1-c1cc(Cl)ccc1Oc1ccc(S(=O)(=O)Nc2nccs2)cc1F` [Example 219, 4-(4-chloro-2-(1-methyl-1H-pyrazol-5-yl)phenoxy)-3-fluoro-N-(thiazol-2-yl)benzenesulfonamide], the IC50 was 20 nM.

On to `O=S(=O)(Nc1nccs1)c1ccc(Oc2ccc(Cl)cc2-c2ccnn2Cc2ccccc2)c(F)c1` [Example 220, 4-(2-(1-benzyl-1H-pyrazol-5-yl)-4-chlorophenoxy)-3-fluoro-N-(thiazol-2-yl)benzenesulfonamide], for which the 50% inhibitory concentration (IC50) is 150 nM.

With `CCOC(=O)Cn1nccc1-c1cc(F)ccc1Oc1ccc(S(=O)(=O)Nc2nccs2)cc1F` [Example 221, ethyl 2-(5-(5-fluoro-2-(2-fluoro-4-(N-thiazol-2-ylsulfamoyl)phenoxy)phenyl)-1H-pyrazol-1-yl)acetate], the IC50 was 450 nM.

In the case of `Cc1ccc(Oc2ccc(S(=O)(=O)Nc3nccs3)cc2F)c(-c2ccnn2C)c1` [Example 222, 3-fluoro-4-(4-methyl-2-(1-methyl-1H-pyrazol-5-yl)phenoxy)-N-(thiazol-2-yl)benzenesulfonamide], the 50% inhibitory concentration (IC50) was 60 nM.

In the case of `Cc1ccc(Oc2ccc(S(=O)(=O)Nc3nccs3)cc2F)c(-c2c(C)cnn2C(C)(C)C)c1` [Example 223, 4-(2-(1-tert-butyl-4-methyl-1H-pyrazol-5-yl)-4-methylphenoxy)-3-fluoro-N-(thiazol-2-yl)benzenesulfonamide], the IC50 is 1510 nM.

Take `Cc1ccc(Oc2ccc(S(=O)(=O)Nc3nccs3)cc2F)c(-c2[nH]ncc2C)c1` [Example 224, 3-fluoro-4-(4-methyl-2-(4-methyl-1H-pyrazol-5-yl)phenoxy)-N-(thiazol-2-yl)benzenesulfonamide]: the concentration for half-maximal inhibition (IC50) is 770 nM.

In the case of `O=S(=O)(Nc1nccs1)c1ccc(Oc2ccc(F)cc2-c2ccnn2CC(F)(F)F)c(F)c1` [Example 225, 3-fluoro-4-(4-fluoro-2-(1-(2,2,2-trifluoroethyl)-1H-pyrazol-5-yl)phenoxy)-N-(thiazol-2-yl)benzenesulfonamide], the 50% inhibitory concentration (IC50) was 430 nM.

Turning to `Cn1nccc1-c1cc(Br)ccc1Oc1ccc(S(=O)(=O)Nc2nccs2)cc1F` [Example 226, 4-(4-bromo-2-(1-methyl-1H-pyrazol-5-yl)phenoxy)-3-fluoro-N-(thiazol-2-yl)benzenesulfonamide], the 50% inhibitory concentration (IC50) is 30 nM.

With `O=S(=O)(Nc1nccs1)c1ccc(Oc2ccc(Cl)cc2-c2ccnn2-c2ccccc2)c(F)c1` [Example 227, 4-(4-chloro-2-(1-phenyl-1H-pyrazol-5-yl)phenoxy)-3-fluoro-N-(thiazol-2-yl)benzenesulfonamide], the 50% inhibitory concentration (IC50) is 30 nM.

With `O=S(=O)(Nc1nccs1)c1ccc(Oc2cc(C(F)(F)F)nn2-c2cc(F)ccc2F)c(F)c1` [Example 228, 4-[2-(2,5-difluoro-phenyl)-5-trifluoromethyl-2H-pyrazol-3-yloxy]-3-fluoro-N-thiazol-2-yl-benzenesulfonamide], the IC50 is 570 nM.

With `O=S(=O)(Nc1nccs1)c1ccc(Oc2cc(C(F)(F)F)nn2-c2ccccc2)c(F)c1` [Example 229, 3-fluoro-4-(2-phenyl-5-trifluoromethyl-2H-pyrazol-3-yloxy)-N-thiazol-2-yl-benzenesulfonamide], the IC50 was 120 nM.

With `O=S(=O)(Nc1nccs1)c1ccc(Oc2cc(C(F)(F)F)nn2-c2ccccc2F)c(F)c1` [Example 230, 3-fluoro-4-[2-(2-fluoro-phenyl)-5-trifluoromethyl-2H-pyrazol-3-yloxy]-N-thiazol-2-yl-benzenesulfonamide], the IC50 is 710 nM.

The values above are taken from patent publication US8541588B2, “Sulfonamide derivatives” (Pfizer Limited, priority 2009, dated 2013).
